Consider 28 compounds from US20210115018A1, “PIPERIDINE COMPOUNDS AS COVALENT MENIN INHIBITORS” (THE REGENTS OF THE UNIVERSITY OF MICHIGAN, priority 2018, published 2021).

Broadly, the IC50 is the concentration needed to halve the response being measured.

One experiment has as its target T1, menin protein (Homo sapiens, UniProt O00255).
T1 sequence (O00255 1-610): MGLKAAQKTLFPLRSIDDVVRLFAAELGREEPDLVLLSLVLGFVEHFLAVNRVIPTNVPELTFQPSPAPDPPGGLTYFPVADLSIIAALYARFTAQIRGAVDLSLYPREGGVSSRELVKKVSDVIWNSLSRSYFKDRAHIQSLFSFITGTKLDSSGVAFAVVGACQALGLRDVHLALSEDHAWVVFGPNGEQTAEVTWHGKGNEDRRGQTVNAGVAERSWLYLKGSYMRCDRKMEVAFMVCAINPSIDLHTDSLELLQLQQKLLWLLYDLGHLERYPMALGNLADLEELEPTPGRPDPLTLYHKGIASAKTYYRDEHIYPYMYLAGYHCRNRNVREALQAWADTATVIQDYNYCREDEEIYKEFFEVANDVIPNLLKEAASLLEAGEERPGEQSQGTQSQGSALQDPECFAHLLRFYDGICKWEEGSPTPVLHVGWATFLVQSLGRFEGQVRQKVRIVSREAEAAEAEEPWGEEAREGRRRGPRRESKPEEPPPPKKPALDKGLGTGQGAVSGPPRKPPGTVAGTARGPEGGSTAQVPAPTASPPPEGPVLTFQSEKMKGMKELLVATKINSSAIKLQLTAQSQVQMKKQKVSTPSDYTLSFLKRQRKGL
Briefly: Fluorescence polarization (FP) competitive binding assay, menin binding affinity. The following applies: FP competition with FAM-MM2 probe 2 nM, menin 4 nM, 30 minutes room temperature. The gist of the method: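 Competitive FP with FAM-labeled MLL1 peptide probe FAM-MM2 (2 nM) and menin (4 nM) in PBS, 0.02% bovine γ-globulin, 4% DMSO, 0.01% Triton X-100. After 30 min at room temperature, mP read at 485/530 nm; IC50 from nonlinear regression against probe-only and complex-only controls.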

Another experiment concerns MOLM13. Briefly: 7-day proliferation assay (WST-8), cell growth inhibition. Format: cell-based. The following applies: Homo sapiens, MOLM-13, 168 h, MOLM13 cells, 7 days. An outline of the steps: (§1)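 Cells seeded at 2,000-3,000/well were exposed to serially diluted compound for 7 days at 37° C., 5% CO2. Viability was read by WST-8 absorbance at 450 nm after 1-2 h color development; readings normalized to DMSO-treated cells, IC50 by four-parameter nonlinear regression.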
(In general: Formazan colour is commonly taken as a measure of viable cells.)

The subject of another experiment is MV4-11. Described as above. Format: cell-based. The following applies: Homo sapiens, MV4-11, 168 h, MV4-11 cells, 7 days. The gist of the method: as §1

In the case of `COC(=O)N[C@H]1CCC[C@@H]1[C@](CN(C)C)(c1cccc(F)c1)C1CCN(CC2CN(c3ccc(S(=O)(=O)C4CN(C(=O)/C=C/CN(C)C)C4)cc3)C2)CC1` [Cpd. No. 2, methyl ((1S,2R)-2-((S)-2-(dimethylamino)-1-(1-((1-(4-((1-((E)-4-(dimethylamino)but-2-enoyl)azetidin-3-yl)sulfonyl)phenyl)azetidin-3-yl)methyl)piperidin-4-yl)-1-(3-fluorophenyl)ethyl)cyclopentyl)carbamate], the IC50 was 5 nM on menin protein, less than 10 nM in the experiment on MOLM13 and less than 10 nM with MV4-11.
As to `COC(=O)N[C@H]1CCC[C@@H]1[C@](CN1CCCC1)(c1cccc(F)c1)C1CCN(CC2CN(c3ccc(S(=O)(=O)C4CN(C(=O)/C=C/CN(C)C)C4)cc3)C2)CC1` [Cpd. No. 3], the IC50 was 2 nM on menin protein, less than 50 nM with MOLM13 and less than 50 nM in the experiment with MV4-11.
Turning to `COC(=O)N[C@H]1CCC[C@@H]1[C@](CN1CCC1)(c1cccc(F)c1)C1CCN(CC2CN(c3ccc(S(=O)(=O)C4CN(C(=O)/C=C/CN(C)C)C4)cc3)C2)CC1` [Cpd. No. 5, methyl ((1S,2R)-2-((S)-2-(azetidin-1-yl)-1-(1-((1-(4-((1-((E)-4-(dimethylamino)but-2-enoyl)azetidin-3-yl)sulfonyl)phenyl)azetidin-3-yl)methyl)piperidin-4-yl)-1-(3-fluorophenyl)ethyl)cyclopentyl)carbamate], the IC50 is 3 nM on menin protein, less than 50 nM in the experiment on MOLM13 and less than 10 nM with MV4-11.
Turning to `COC(=O)N[C@H]1CCC[C@@H]1[C@](CN1CCC1)(c1cccc(F)c1)C1CCN(CC2(F)CN(c3ccc(S(=O)(=O)C4CN(C(=O)/C=C/CN5CCCCC5)C4)cc3F)C2)CC1` [compound 94], the IC50 is less than 50 nM with MOLM13 and less than 10 nM with MV4-11.
Taken in the same sequence, the figures for `COC(=O)N[C@H]1CCC[C@@H]1[C@](CN1CCC1)(c1cccc(F)c1)C1CCN(CC2(F)CN(c3ccc(S(=O)(=O)C4CN(C(=O)/C=C/CN5CCCCC5)C4)cc3)C2)CC1` [compound 95] were less than 50 nM and less than 10 nM.
For the compound `CC#CC(=O)N1CC(S(=O)(=O)c2ccc(N3CC(F)(CN4CCC([C@@](CN5CCC5)(c5cccc(F)c5)[C@H]5CCC[C@@H]5NC(=O)OC)CC4)C3)c(F)c2)C1` [compound 102], the IC50 in the experiment with MOLM13 was less than 50 nM; in the experiment with MV4-11, less than 10 nM.
For the compound `C=CC(=O)N1CCCC(S(=O)(=O)c2ccc(N3CC(F)(CN4CCC([C@@](CN5CCC5)(c5cccc(F)c5)[C@H]5CCC[C@@H]5NC(=O)OC)CC4)C3)cc2)C1` (some centres unmarked) [compound 112], the IC50 in the experiment on MOLM13 and with MV4-11 was less than 50 nM throughout.
Take `COC(=O)N[C@H]1CCC[C@@H]1[C@](CN1CCC1)(c1cccc(F)c1)C1CCN(CC2(F)CN(c3ccc(S(=O)(=O)C4CCCN(C(=O)/C=C/CO)C4)cc3F)C2)CC1` (some centres unmarked) [compound 122]: the IC50 is less than 100 nM in the experiment on MOLM13 and less than 50 nM in the experiment on MV4-11.
As for `C=CC(=O)N1CCOCC(S(=O)(=O)c2ccc(N3CC(F)(CN4CCC([C@@](CN5CCC5)(c5cccc(F)c5)[C@H]5CCC[C@@H]5NC(=O)OC)CC4)C3)cc2)C1` (some centres unmarked) [compound 125], the IC50 in the experiment on MOLM13 and with MV4-11 was less than 50 nM throughout.
Regarding `C=CC(=O)N1CCc2ccc(S(=O)(=O)c3ccc(N4CC(F)(CN5CCC([C@@](CN6CCC6)(c6cccc(F)c6)[C@H]6CCC[C@@H]6NC(=O)OC)CC5)C4)c(F)c3)cc21` [compound 126], the values for the IC50 in the experiment with MOLM13 and with MV4-11 were less than 1000 nM and less than 500 nM, respectively.
For the compound `C=CC(=O)N1CCc2c1cccc2S(=O)(=O)c1ccc(N2CC(F)(CN3CCC([C@@](CN4CCC4)(c4cccc(F)c4)[C@H]4CCC[C@@H]4NC(=O)OC)CC3)C2)c(F)c1` [compound 127], the IC50 was less than 500 nM in the experiment on MOLM13 and less than 100 nM in the experiment on MV4-11.
Turning to `COC(=O)N[C@H]1CCC[C@@H]1[C@](CNC(C)=O)(c1cccc(F)c1)C1CCN(CC2CN(c3ccc(S(=O)(=O)C4CN(C(=O)/C=C/CN(C)C)C4)cc3)C2)CC1` [compound 128], the IC50 is less than 100 nM in the experiment on MOLM13 and less than 10 nM with MV4-11.
For `C=CC(=O)N1CC(S(=O)(=O)c2ccc(N3CC(CN4CCC([C@@](CNC(C)=O)(c5cccc(F)c5)[C@H]5CCC[C@@H]5NC(=O)OC)CC4)C3)cc2CN2CC(F)C2)C1` [compound 176] the same measures were less than 50 nM and less than 50 nM.
With `C=CC(=O)N1CC(S(=O)(=O)c2ccc(N3CC(F)(CN4CCC([C@@](CNC(C)=O)(c5cccc(F)c5)[C@H]5CCC[C@@H]5NC(=O)OC)CC4)C3)cc2CN2CC(F)C2)C1` [compound 177], the figures for the IC50 with MOLM13 and with MV4-11 were less than 500 nM and less than 100 nM, respectively.
With `C=CC(=O)N1CCOC[C@@H](S(=O)(=O)c2ccc(N3CC(CN4CCC([C@@](CNC(=O)OC)(c5cccc(F)c5)[C@H]5CCC[C@@H]5NC(=O)OC)CC4)C3)c(F)c2)C1` [compound 179], the IC50 with MOLM13 is less than 100 nM; in the experiment with MV4-11, less than 50 nM.
For `C=CC(=O)N1CCOC[C@@H](S(=O)(=O)c2ccc(N3CC(C)(CN4CCC([C@@](CNC(=O)OC)(c5cccc(F)c5)[C@H]5CCC[C@@H]5NC(=O)OC)CC4)C3)c(F)c2)C1` [compound 181] the same measures were less than 500 nM and less than 50 nM.
For `C=CC(=O)N1CCOC[C@@H](S(=O)(=O)c2ccc(N3CC(CN4CCC([C@@](Cn5ccnn5)(c5cccc(F)c5)[C@H]5CCC[C@@H]5NC(=O)OC)CC4)C3)c(F)c2)C1` [compound 182] the same measures were less than 100 nM and less than 10 nM.
For `C=CC(=O)N1CCOC[C@@H](S(=O)(=O)c2ccc(N3CC(F)(CN4CCC([C@@](Cn5ccnn5)(c5cccc(F)c5)[C@H]5CCC[C@@H]5NC(=O)OC)CC4)C3)c(F)c2)C1` [compound 184], the IC50 in the experiment with MOLM13 and with MV4-11 was less than 500 nM in each case.
Regarding `C=CC(=O)N1CCOC[C@@H](S(=O)(=O)c2ccc(N3CC(C)(CN4CCC([C@@](Cn5ccnn5)(c5cccc(F)c5)[C@H]5CCC[C@@H]5NC(=O)OC)CC4)C3)c(F)c2)C1` [compound 185], the IC50 in the experiment on MOLM13 was less than 1000 nM; with MV4-11, less than 100 nM.
For `C=CC(=O)N1CCCC[C@@H](S(=O)(=O)c2ccc(N3CC(CN4CCC([C@@](CNC(=O)OC)(c5cccc(F)c5)[C@H]5CCC[C@@H]5NC(=O)OC)CC4)C3)c(F)c2)C1` [compound 186] the same measures were less than 50 nM and less than 50 nM.
For `C=CC(=O)Nc1cccc(S(=O)(=O)c2ccc(N3CC(CN4CCC([C@@](CN5CCC5)(c5cccc(F)c5)[C@H]5CCC[C@@H]5NC(=O)OC)CC4)(OC)C3)c(F)c2)c1` [compound 187] the same measures were less than 10 nM and less than 10 nM.
For `C=CC(=O)Nc1cccc(S(=O)(=O)c2ccc(N3CC(CN4CCC([C@@](CN5CCC5)(c5cccc(F)c5)[C@H]5CCC[C@@H]5NC(=O)OC)CC4)(OC)C3)cc2)c1` [compound 188] the same measures were less than 10 nM and less than 10 nM.
Turning to `C=CC(=O)N1CCC[C@@H](S(=O)(=O)c2ccc(N3CC(CN4CCC([C@@](CNC(C)=O)(c5cccc(F)c5)[C@H]5CCC[C@@H]5NC(=O)OC)CC4)C3)cc2)C1` [compound 199], the IC50 in the experiment on MOLM13 and in the experiment on MV4-11 was less than 50 nM throughout.
For the compound `C=CC(=O)N1CCC[C@@H](S(=O)(=O)c2ccc(N3CC(O)(CN4CCC([C@@](CNC(C)=O)(c5cccc(F)c5)[C@H]5CCC[C@@H]5NC(=O)OC)CC4)C3)cc2)C1` [compound 205], the IC50 in the experiment on MOLM13 and with MV4-11 was less than 500 nM in each case.
For `C=CC(=O)N1CCC[C@@H](S(=O)(=O)c2ccc(N3CC(CN4CCC([C@@](CN5CCC5)(c5cccc(F)c5)[C@H]5CCC[C@@H]5NC(=O)OC)CC4)C3)cc2CN2CC(F)C2)C1` [compound 208], the IC50 with MOLM13 and in the experiment on MV4-11 was less than 50 nM each time.
On to `C=CC(=O)N1CCC[C@@H](S(=O)(=O)c2ccc(N3CC(CN4CCC([C@@](CN5CCC5)(c5cccc(F)c5)[C@H]5CCC[C@@H]5NC(=O)OC)CC4)(OC)C3)cc2)C1` [compound 212], for which the IC50 is less than 100 nM in the experiment with MOLM13 and less than 50 nM in the experiment on MV4-11.
For `C=CC(=O)N1CCOC[C@H](S(=O)(=O)c2ccc(N3CC(C)(CN4CCC([C@@](CN5CCC5)(c5cccc(F)c5)[C@H]5CCC[C@@H]5NC(=O)OC)CC4)C3)cc2)C1` [compound 213] the same measures were less than 100 nM and less than 50 nM.
For `C=CC(=O)N1CCOC[C@@H](S(=O)(=O)c2ccc(N3CC(C)(CN4CCC([C@@](CN5CCC5)(c5cccc(F)c5)[C@H]5CCC[C@@H]5NC(=O)OC)CC4)C3)cc2)C1` [compound 214] the same measures were less than 500 nM and less than 500 nM.
